According to patent US4333930A, “Orthoarylideneaminophenethylamines and pharmaceutical compositions” (priority 1980, dated 1982):
Like-named read-outs stand apart in the source and are kept apart here.

How the values were obtained:
[1] = test system: ptosis induced by reserpine; test: Antagonism of ptosis induced by reserpine, Table 6; format: in vivo; conditions: po, read-out: % of inhibition of ptosis induced by reserpine
Source text: (§1) The psychotropic profile of the present invention products has been characterized with the animals in numerous tests some of whose results are shown hereinafter. The products of the invention were always administered orally in 6% gum base.
(§2) Certain tests made it possible to show antidepressive activities. These are tests of antagonism to the effects of reserpine, oxotremorine (according to Everett G. M. et al, Science, 1956, 124, 79 and Levy J. et al, Therapie 1965, 20, 265) and to despair (according to Porsolt P. D. et al, Eur. J. Pharmacol., 1978, 47, 379-91).
% of inhibition of ptosis induced by reserpine
as a function of the dose administered orally

[2] = test system: trembling induced by oxotremorine; test: Antagonism of trembling induced by oxotremorine, Table 7; format: in vivo; conditions: po, read-out: % of inhibition of trembling induced by oxotremorine
Source text: as §1, §2
% of inhibition of trembling induced by
oxotremorine as a function of the dose
(§3) administered expressed in mg/kg

phenylbenzoquinone (PBQ) = test: Analgesic activity using phenylbenzoquinone (PBQ) as noxious agent, Table 2; format: in vivo, male Swiss mouse; conditions: Mus musculus; for inhibition in vivo at 100 mg/kg: read-out: % of analgesic activity, 100 mg/kg, male Swiss mouse, PBQ; for inhibition in vivo at 200 mg/kg: read-out: % of analgesic activity, 200 mg/kg, male Swiss mouse, PBQ
Method: The analgesic activity was determined with the male Swiss mouse using phenylbenzoquinone (PBQ) (a variation of the method of Siegmund et al, Proc. Soc. Exp. Med., […], 95, 729-31) as the noxious agent. Twenty-eightminutes after having administered the test products in a suspension in a 6% gum base, the PBQ solution was injected. The mice were then observed ca. 5 mn. for the next five minutes.
% of analgesic activity as a function of
the dose expressed in mg/kg

[3] = test system: number of escapes the animal made in 5 minutes; test: Escape test, Table 3; format: in vivo, mouse; conditions: 5 min, read-out: % of activity (variation of the number of escapes)
Source text: The products of the invention were always administered orally in 6% gum base.
The notation NS signifies that the difference between the results noted for the product and the results noted for the excipient alone is not significant at the threshold 0.05 according to the Student t Test.

despair = test: Test of despair (Porsolt), Table 8; format: in vivo; conditions: oral
Source text: as §1, §2
Test of despair: % of antagonism as a function
of the dose administered orally and expressed

[4] = test system: salivation induced by pilocarpine; test: Inhibition of salivation induced by pilocarpine (anticholinergic activity), Table 9; format: in vivo; conditions: oral
Source text: as §1
Certain products manifest an anticholinergic activity evidenced in the inhibition test of salivation induced by pilocarpine (Table 9).
% of inhibition of salivation induced by
pilocarpine as a function of the dose
as §3

[5] = Oral toxicity (mortality) in the mouse, Table 1; format: in vivo; conditions: mouse, in vivo, po, Swiss mice, 14 days
Method: (§4) The mortality percentages caused by the products of the present invention administered orally to Swiss mice are shown in Table 1. The animals, free of specific pathological organism were housed in an air conditioned room from 24 to 48 hours before the start of the experiments. They were divided up into lots of 5 males and 5 females. With the animals unfed for 24 hours, the substances were administered intragastrically in a base of 6% gum arabic in a volume equal to 0.1 ml for 10 g of animal weight. The mortality was recorded at 14 days.
(§5) % of mortality as a function of the dose

[6] = test system: number of displacements of the animal; test: Four plates test (anxiolytic activity), Table 5; format: in vivo; conditions: oral, mouse
Source text: as §1
A certain number of products manifest an anxiolytic activity evidenced in the test with the four plates with the mouse (Table 5).
% of increase in the number of displacements of the
animal as a function of the dose expressed in mg/kg

Swiss mice = test: Oral toxicity (mortality) in the mouse, Table 1; format: in vivo; conditions: 1000 mg/kg, 14 days, 20160 min
Method: as §4, §5

[7] = test system: stereotype induced by apomorphine; test: Antagonism of the stereotype induced by apomorphine, Table 4; format: in vivo
Source text: as §1
% of activity vis-a-vis the stereotype
induced by apomorphine as a function of the
administered dose expressed in mg/kg

catalepsy = test: Catalepsy; format: in vivo; conditions: 400 and 600 mg/kg

SMILES	change in vivo at 50 mg/kg [2] [%]	change in vivo at 100 mg/kg [2] [%]	change in vivo at 200 mg/kg [2] [%]	inhibition in vivo at 100 mg/kg (phenylbenzoquinone (PBQ)) [%]	inhibition in vivo at 200 mg/kg (phenylbenzoquinone (PBQ)) [%]	Test of despair: % of antagonism (despair; 100 mg/kg) [%]	Test of despair: % of antagonism (despair; 200 mg/kg) [%]	% of inhibition of salivation induced by pilocarpine ([4]; 200 mg/kg) [%]	mortality at 336 h ([5]; 1500 mg/kg) [%]	% of increase in the number of displacements of the animal ([6]; 3 mg/kg)	% of increase in the number of displacements of the animal ([6]; 5 mg/kg)	% of increase in the number of displacements of the animal ([6]; 10 mg/kg)	change in vivo at 100 mg/kg ([3]; Mus musculus, po) [%]	change in vivo at 200 mg/kg ([3]; Mus musculus, po) [%]	% of increase in the number of displacements of the animal ([6]; 25 mg/kg)	other results
CN(C)CCc1ccccc1N=Cc1cccnc1 [COR 01 184]	0	-22	-17	44	55	-20	-18	-23	0	+73%	+56%	+61%	–	–	–	change in vivo at 50 mg/kg [1]: -13%; change in vivo at 100 mg/kg [1]: -39%; change in vivo at 200 mg/kg [1]: -34%; change in vivo at 25 mg/kg [2]: -20%; inhibition in vivo at 50 mg/kg (phenylbenzoquinone (PBQ); read-out: % of analgesic activity, 50 mg/kg, male Swiss mouse, PBQ): 34%; change in vivo at 5 mg/kg ([3]; 5 mg/kg, oral, mouse, 5 minutes): -34%; change in vivo at 10 mg/kg ([3]; 10 mg/kg, oral, mouse, 5 minutes): -26%; change in vivo at 25 mg/kg ([3]; 25 mg/kg, oral, mouse, 5 minutes): -23%; change in vivo at 50 mg/kg ([3]; 50 mg/kg, oral, mouse, 5 minutes): -34%; change in vivo at 100 mg/kg ([3]; 100 mg/kg, oral, mouse, 5 minutes): -47%; change in vivo at 200 mg/kg ([3]; 200 mg/kg, oral, mouse, 5 minutes): -46%; mortality at 336 h ([5]; 2000 mg/kg): 30%; % of increase in the number of displacements of the animal ([6]; 1.5 mg/kg): +89%
CN(C)CCc1cc2c(cc1N=Cc1cccnc1)OCO2 [COR 01 170, 6-dimethylaminoethyl N-(pyridylidene-3)-1,3-benzodioxole-5-ylamine]	-40	-50	-78	30	39	-39	-33	-57	100	–	–	–	-32	-59	+18%	Test of despair: % of antagonism (despair; 50 mg/kg): -39%; % of inhibition of salivation induced by pilocarpine ([4]; 100 mg/kg): -18%; % of mortality (Swiss mice): 0%; % of increase in the number of displacements of the animal ([6]; 40 mg/kg): +57%; % of increase in the number of displacements of the animal ([6]; 50 mg/kg): +36%; % of increase in the number of displacements of the animal ([6]; 60 mg/kg): +69%; % of increase in the number of displacements of the animal ([6]; 75 mg/kg): +72%
CN(C)CCc1cc2c(cc1N=CC=Cc1ccccc1)OCO2 [COR 01 176]	-40	-50	-20	23	39	–	–	–	–	+101%	+117%	+72%	-33	-43	+66%	change in vivo at 0.5 mg/kg ([3]; Mus musculus, po): -29%; change in vivo at 1 mg/kg ([3]; Mus musculus, po): -40%; change in vivo at 3 mg/kg ([3]; Mus musculus, po): -39%; change in vivo at 5 mg/kg ([3]; Mus musculus, po): -33%; change in vivo at 25 mg/kg ([3]; Mus musculus, po): -32%; change in vivo at 50 mg/kg ([3]; Mus musculus, po): -37%; % of activity vis-a-vis the stereotype induced by apomorphine ([7]; 200 mg/kg, oral): -64%; antagonism vis-a-vis the stereotype with apomorphine ([7]; in words): manifest an antagonism; catalepsy (catalepsy): slight catalepsy; mortality at 336 h ([5]; 1000 mg/kg): 0%; % of increase in the number of displacements of the animal ([6]; 20 mg/kg): +72%
